Measurements reported in patent US12391648B2, “Pyridyloxy thioester derivative and preparation method therefor, herbicidal composition, and application” (Qingdao Kingagroot Chemical Compound Co., Ltd., priority 2018, dated 2025).

Experiments:
Assay in all cases: Post-emergence test experiment (Table 3, 1000 g/ha)
Type in all cases: in vivo
Settings in all cases: post-emergence spray, after 3 weeks, fresh weight inhibition
Setaria viridis = system: Setaria viridis
Outline: (§1)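 Weed seeds sown in soil-filled pots in greenhouse, sprayed at 2-3 leaf stage (2 weeks after sowing) with compound in acetone/tween-80 plus methyl oleate emulsible concentrate (1.5 L/ha) diluted in water. Fresh-weight growth inhibition scored after 3 weeks on 0-5 scale (5: >85%, 0: <5%).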

Monochoria vaginalis = system: Monochoria vaginalis
Outline: as §1

Abutilon theophrasti = system: Abutilon theophrasti
Outline: as §1

Galium spurium = system: Galium spurium
Outline: as §1

Digitaria sanguinalis = system: Digitaria sanguinalis
Outline: as §1

Leptochloa chinensis = system: Leptochloa chinensis
Outline: as §1

| Compound | Activity level (growth inhibition rate) Setaria viridis (Setaria viridis) | Activity level (growth inhibition rate) Monochoria Vaginalis (Monochoria vaginalis) | Activity level (growth inhibition rate) Abutilon theophrasti (Abutilon theophrasti) | Activity level (growth inhibition rate) Galium spurium (Galium spurium) | Activity level (growth inhibition rate) Digitaria sanguinalis (Digitaria sanguinalis) | Activity level (growth inhibition rate) Leptochloa chinensis (Leptochloa chinensis) |
| --- | --- | --- | --- | --- | --- | --- |
| CC(Oc1nc(F)c(Cl)c(N)c1Cl)C(=O)Sc1cccn1C (stereo not drawn) [Compound 122] | 5 (Level 5: the growth inhibition rate is greater than 85%) | 5 (Level 5: the growth inhibition rate is greater than 85%) | 5 (Level 5: the growth inhibition rate is greater than 85%) | 5 (Level 5: the growth inhibition rate is greater than 85%) | 5 (Level 5: the growth inhibition rate is greater than 85%) | 5 (Level 5: the growth inhibition rate is greater than 85%) |
| CC(Oc1nc(F)c(Cl)c(N)c1Cl)C(=O)Sc1cn(C)cn1 (stereo not drawn) [Compound 123] | 5 (Level 5: the growth inhibition rate is greater than 85%) | 5 (Level 5: the growth inhibition rate is greater than 85%) | 5 (Level 5: the growth inhibition rate is greater than 85%) | 5 (Level 5: the growth inhibition rate is greater than 85%) | 5 (Level 5: the growth inhibition rate is greater than 85%) | 5 (Level 5: the growth inhibition rate is greater than 85%) |
| CC(Oc1nc(F)c(Cl)c(N)c1Cl)C(=O)SC1CCC1 (stereo not drawn) [Compound 124] | 5 (Level 5: the growth inhibition rate is greater than 85%) | 5 (Level 5: the growth inhibition rate is greater than 85%) | 5 (Level 5: the growth inhibition rate is greater than 85%) | 5 (Level 5: the growth inhibition rate is greater than 85%) | 5 (Level 5: the growth inhibition rate is greater than 85%) | 5 (Level 5: the growth inhibition rate is greater than 85%) |
| CC(Oc1nc(F)c(Cl)c(N)c1Cl)C(=O)SC1CCCC1 (stereo not drawn) [Compound 125] | 5 (Level 5: the growth inhibition rate is greater than 85%) | 5 (Level 5: the growth inhibition rate is greater than 85%) | 5 (Level 5: the growth inhibition rate is greater than 85%) | 5 (Level 5: the growth inhibition rate is greater than 85%) | 5 (Level 5: the growth inhibition rate is greater than 85%) | 5 (Level 5: the growth inhibition rate is greater than 85%) |
| CNc1c(Cl)c(F)nc(OC(C)C(=O)SC)c1Cl (stereo not drawn) [Compound 127] | 5 (Level 5: the growth inhibition rate is greater than 85%) | 5 (Level 5: the growth inhibition rate is greater than 85%) | 5 (Level 5: the growth inhibition rate is greater than 85%) | 5 (Level 5: the growth inhibition rate is greater than 85%) | 5 (Level 5: the growth inhibition rate is greater than 85%) | 5 (Level 5: the growth inhibition rate is greater than 85%) |
| CCNc1c(Cl)c(F)nc(OC(C)C(=O)SC)c1Cl (stereo not drawn) [Compound 128] | 5 (Level 5: the growth inhibition rate is greater than 85%) | 5 (Level 5: the growth inhibition rate is greater than 85%) | 5 (Level 5: the growth inhibition rate is greater than 85%) | 5 (Level 5: the growth inhibition rate is greater than 85%) | 5 (Level 5: the growth inhibition rate is greater than 85%) | 5 (Level 5: the growth inhibition rate is greater than 85%) |
| CSC(=O)C(C)Oc1nc(F)c(Cl)c(NC(C)=O)c1Cl (stereo not drawn) [Compound 129] | 5 (Level 5: the growth inhibition rate is greater than 85%) | 5 (Level 5: the growth inhibition rate is greater than 85%) | 5 (Level 5: the growth inhibition rate is greater than 85%) | 5 (Level 5: the growth inhibition rate is greater than 85%) | 5 (Level 5: the growth inhibition rate is greater than 85%) | 5 (Level 5: the growth inhibition rate is greater than 85%) |
| CSC(=O)C(C)Oc1nc(F)c(Cl)c(NC(=O)c2ccccc2)c1Cl (stereo not drawn) [Compound 131] | 5 (Level 5: the growth inhibition rate is greater than 85%) | 5 (Level 5: the growth inhibition rate is greater than 85%) | 5 (Level 5: the growth inhibition rate is greater than 85%) | 5 (Level 5: the growth inhibition rate is greater than 85%) | 5 (Level 5: the growth inhibition rate is greater than 85%) | 5 (Level 5: the growth inhibition rate is greater than 85%) |
| CSC(=O)C(C)Oc1nc(F)c(Cl)c(NCc2ccccc2)c1Cl (stereo not drawn) [Compound 132] | 5 (Level 5: the growth inhibition rate is greater than 85%) | 5 (Level 5: the growth inhibition rate is greater than 85%) | 5 (Level 5: the growth inhibition rate is greater than 85%) | 5 (Level 5: the growth inhibition rate is greater than 85%) | 5 (Level 5: the growth inhibition rate is greater than 85%) | 5 (Level 5: the growth inhibition rate is greater than 85%) |
| CC(C)CSC(=O)C(C)Oc1nc(F)c(Cl)c(N)c1Cl (stereo not drawn) [Compound 133] | 5 (Level 5: the growth inhibition rate is greater than 85%) | 5 (Level 5: the growth inhibition rate is greater than 85%) | 5 (Level 5: the growth inhibition rate is greater than 85%) | 5 (Level 5: the growth inhibition rate is greater than 85%) | 5 (Level 5: the growth inhibition rate is greater than 85%) | 5 (Level 5: the growth inhibition rate is greater than 85%) |
| CCCCCCC(C)SC(=O)C(C)Oc1nc(F)c(Cl)c(N)c1Cl (stereo not drawn) [Compound 135] | 5 (Level 5: the growth inhibition rate is greater than 85%) | 5 (Level 5: the growth inhibition rate is greater than 85%) | 5 (Level 5: the growth inhibition rate is greater than 85%) | 5 (Level 5: the growth inhibition rate is greater than 85%) | 5 (Level 5: the growth inhibition rate is greater than 85%) | 5 (Level 5: the growth inhibition rate is greater than 85%) |
| CC(C)CCCCCSC(=O)C(C)Oc1nc(F)c(Cl)c(N)c1Cl (stereo not drawn) [Compound 136] | 5 (Level 5: the growth inhibition rate is greater than 85%) | 5 (Level 5: the growth inhibition rate is greater than 85%) | 5 (Level 5: the growth inhibition rate is greater than 85%) | 5 (Level 5: the growth inhibition rate is greater than 85%) | 5 (Level 5: the growth inhibition rate is greater than 85%) | 5 (Level 5: the growth inhibition rate is greater than 85%) |
| CCCCCCCSC(=O)C(C)Oc1nc(F)c(Cl)c(N)c1Cl (stereo not drawn) [Compound 139] | 5 (Level 5: the growth inhibition rate is greater than 85%) | 5 (Level 5: the growth inhibition rate is greater than 85%) | 5 (Level 5: the growth inhibition rate is greater than 85%) | 5 (Level 5: the growth inhibition rate is greater than 85%) | 5 (Level 5: the growth inhibition rate is greater than 85%) | 5 (Level 5: the growth inhibition rate is greater than 85%) |
